# Experimental data taken from PubChem BioAssay (NCI).
# Several values for one entry are separate records, joined by “and”; a condition that tells them apart may be missing. Equal entries are not always repeated.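 Method: 48-hour compound exposure of cells in 96-well plates, five concentrations, linear interpolation of endpoints. GI50 = concentration required for 50% inhibition of growth. At the TGI there is no net growth.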
# Tests used:
# Test in all cases: NCI-60 cell line screen, 48 h
# HS 578T breast = system: HS 578T breast
# LOX IMVI melanoma = system: LOX IMVI melanoma
# M14 melanoma = system: M14 melanoma
# RPMI-8226 leukemia = system: RPMI-8226 leukemia
# SW-620 colon = system: SW-620 colon
# OVCAR-8 ovarian = system: OVCAR-8 ovarian
# MOLT-4 leukemia = system: MOLT-4 leukemia
# OVCAR-3 ovarian = system: OVCAR-3 ovarian
# NCI-H23 lung = system: NCI-H23 lung
# MDA-MB-231 breast = system: MDA-MB-231 breast
# SF-268 CNS = system: SF-268 CNS
# UO-31 renal = system: UO-31 renal
# A498 renal = system: A498 renal
# UACC-62 melanoma = system: UACC-62 melanoma
# SNB-19 CNS = system: SNB-19 CNS
# MCF7 breast = system: MCF7 breast
# HCT-116 colon = system: HCT-116 colon
# U251 CNS = system: U251 CNS
# SN12C renal = system: SN12C renal
# SF-539 CNS = system: SF-539 CNS
# IGROV1 ovarian = system: IGROV1 ovarian
# PC-3 prostate = system: PC-3 prostate
# NCI-H522 lung = system: NCI-H522 lung
# HOP-62 NSCLC = system: HOP-62 NSCLC
# K-562 leukemia = system: K-562 leukemia
# SK-MEL-5 melanoma = system: SK-MEL-5 melanoma
# HCT-15 colon = system: HCT-15 colon
# RXF 393 renal = system: RXF 393 renal
# HOP-92 NSCLC = system: HOP-92 NSCLC
# A549 NSCLC = system: A549 NSCLC
# CCRF-CEM leukemia = system: CCRF-CEM leukemia
# DU-145 prostate = system: DU-145 prostate
# NCI-H226 lung = system: NCI-H226 lung
# SF-295 CNS = system: SF-295 CNS
# 786-0 renal = system: 786-0 renal
# HT29 colon = system: HT29 colon
# SR leukemia = system: SR leukemia
# NCI/ADR-RES ovarian = system: NCI/ADR-RES ovarian
# SNB-75 CNS = system: SNB-75 CNS
# OVCAR-5 ovarian = system: OVCAR-5 ovarian
# CAKI-1 renal = system: CAKI-1 renal
# ACHN renal = system: ACHN renal
# NCI-H460 lung = system: NCI-H460 lung
# MDA-MB-435 = system: MDA-MB-435
# MALME-3M melanoma = system: MALME-3M melanoma
# SK-MEL-2 melanoma = system: SK-MEL-2 melanoma
# SK-OV-3 ovarian = system: SK-OV-3 ovarian
# BT-549 breast = system: BT-549 breast
# HCC-2998 colon = system: HCC-2998 colon
# TK-10 renal = system: TK-10 renal
# OVCAR-4 ovarian = system: OVCAR-4 ovarian
# HL-60(TB) leukemia = system: HL-60(TB) leukemia
# SK-MEL-28 melanoma = system: SK-MEL-28 melanoma
# EKVX NSCLC = system: EKVX NSCLC
# UACC-257 melanoma = system: UACC-257 melanoma
# COLO 205 colon = system: COLO 205 colon
# KM12 colon = system: KM12 colon
# T-47D breast = system: T-47D breast
structure (smiles),measurement,setting,value
CCN(CC)CCC(CNc1c2ccc([N+](=O)[O-])cc2nc2cc(OC)c(OC)cc12)c1ccccc1 (stereo unspecified),GI50,HS 578T breast,528 nM and 272 nM
same,TGI,HS 578T breast,2880 nM and 1200 nM
same,GI50,LOX IMVI melanoma,568 nM and 527 nM
same,TGI,LOX IMVI melanoma,1860 nM
same,GI50,M14 melanoma,335 nM and 305 nM
same,TGI,M14 melanoma,1400 nM and 1230 nM
same,GI50,RPMI-8226 leukemia,272 nM and 63.8 nM
same,TGI,RPMI-8226 leukemia,1150 nM and 411 nM
same,GI50,SW-620 colon,145 nM and 72.7 nM
same,TGI,SW-620 colon,1100 nM and 763 nM
same,GI50,OVCAR-8 ovarian,450 nM and 166 nM
same,TGI,OVCAR-8 ovarian,1870 nM and 978 nM
same,GI50,MOLT-4 leukemia,317 nM and 444 nM
same,TGI,MOLT-4 leukemia,2410 nM and 5930 nM
same,GI50,OVCAR-3 ovarian,269 nM and 92.7 nM
same,TGI,OVCAR-3 ovarian,1010 nM and 335 nM
same,GI50,NCI-H23 lung,292 nM and 287 nM
same,TGI,NCI-H23 lung,1230 nM and 1290 nM
same,GI50,MDA-MB-231 breast,174 nM and 178 nM
same,TGI,MDA-MB-231 breast,627 nM and 730 nM
same,GI50,SF-268 CNS,238 nM and 109 nM
same,TGI,SF-268 CNS,1290 nM and 573 nM
same,GI50,UO-31 renal,1100 nM and 956 nM
same,TGI,UO-31 renal,2430 nM and 2600 nM
same,GI50,A498 renal,1690 nM and 1190 nM
same,TGI,A498 renal,3120 nM and 2520 nM
same,GI50,UACC-62 melanoma,542 nM and 696 nM
same,TGI,UACC-62 melanoma,1910 nM and 2010 nM
same,GI50,SNB-19 CNS,214 nM and 177 nM
same,TGI,SNB-19 CNS,1240 nM
same,GI50,MCF7 breast,36.3 nM and 42.8 nM
same,TGI,MCF7 breast,905 nM and 1230 nM
same,GI50,HCT-116 colon,89.8 nM and 47.2 nM
same,TGI,HCT-116 colon,1140 nM and 491 nM
same,GI50,U251 CNS,294 nM and 203 nM
same,TGI,U251 CNS,1130 nM and 1220 nM
same,GI50,SN12C renal,229 nM and 218 nM
same,TGI,SN12C renal,1220 nM and 1490 nM
same,GI50,SF-539 CNS,380 nM and 423 nM
same,TGI,SF-539 CNS,1460 nM and 1640 nM
same,GI50,IGROV1 ovarian,405 nM and 290 nM
same,TGI,IGROV1 ovarian,1660 nM and 1020 nM
same,GI50,PC-3 prostate,305 nM and 209 nM
same,TGI,PC-3 prostate,1010 nM and 980 nM
same,GI50,NCI-H522 lung,345 nM and 166 nM
same,TGI,NCI-H522 lung,1460 nM and 435 nM
same,GI50,HOP-62 NSCLC,284 nM and 226 nM
same,TGI,HOP-62 NSCLC,1230 nM and 1100 nM
same,GI50,K-562 leukemia,142 nM and 146 nM
same,TGI,K-562 leukemia,1250 nM and 3850 nM
same,GI50,SK-MEL-5 melanoma,445 nM
same,TGI,SK-MEL-5 melanoma,1470 nM
same,GI50,HCT-15 colon,738 nM and 1030 nM
same,TGI,HCT-15 colon,2140 nM and 3100 nM
same,GI50,RXF 393 renal,541 nM and 228 nM
same,TGI,RXF 393 renal,1770 nM and 662 nM
same,GI50,HOP-92 NSCLC,258 nM and 80.9 nM
same,TGI,HOP-92 NSCLC,850 nM and 404 nM
same,GI50,A549 NSCLC,177 nM and 132 nM
same,TGI,A549 NSCLC,401 nM and 541 nM
same,GI50,CCRF-CEM leukemia,1190 nM and 1700 nM
same,TGI,CCRF-CEM leukemia,7290 nM and 10100 nM
same,GI50,DU-145 prostate,134 nM and 58.2 nM
same,TGI,DU-145 prostate,1040 nM and 301 nM
same,GI50,NCI-H226 lung,260 nM and 329 nM
same,TGI,NCI-H226 lung,869 nM and 1470 nM
same,GI50,SF-295 CNS,1090 nM and 930 nM
same,TGI,SF-295 CNS,2490 nM and 2650 nM
same,GI50,786-0 renal,1070 nM and 671 nM
same,TGI,786-0 renal,2540 nM and 1930 nM
same,GI50,HT29 colon,40.5 nM and 28.9 nM
same,TGI,HT29 colon,239 nM and 100 nM
same,GI50,SR leukemia,37.9 nM and 57 nM
same,TGI,SR leukemia,521 nM and 3570 nM
same,GI50,NCI/ADR-RES ovarian,1530 nM and 1720 nM
same,TGI,NCI/ADR-RES ovarian,5100 nM and 5070 nM
same,GI50,SNB-75 CNS,330 nM and 673 nM
same,TGI,SNB-75 CNS,1620 nM and 2150 nM
same,GI50,OVCAR-5 ovarian,487 nM and 755 nM
same,TGI,OVCAR-5 ovarian,1930 nM and 2300 nM
same,GI50,CAKI-1 renal,1680 nM and 1580 nM
same,TGI,CAKI-1 renal,3780 nM and 3760 nM
same,GI50,ACHN renal,553 nM and 518 nM
same,TGI,ACHN renal,2070 nM and 2060 nM
same,GI50,NCI-H460 lung,118 nM and 52.5 nM
same,TGI,NCI-H460 lung,1050 nM and 631 nM
same,GI50,MDA-MB-435,161 nM and 148 nM
same,TGI,MDA-MB-435,311 nM and 319 nM
same,GI50,MALME-3M melanoma,201 nM and 191 nM
same,TGI,MALME-3M melanoma,454 nM and 479 nM
same,GI50,SK-MEL-2 melanoma,229 nM and 81.6 nM
same,TGI,SK-MEL-2 melanoma,609 nM and 253 nM
same,GI50,SK-OV-3 ovarian,844 nM and 695 nM
same,TGI,SK-OV-3 ovarian,2170 nM and 2550 nM
same,GI50,BT-549 breast,1490 nM and 740 nM
same,TGI,BT-549 breast,3780 nM and 2000 nM
same,GI50,HCC-2998 colon,138 nM and 114 nM
same,TGI,HCC-2998 colon,348 nM and 284 nM
same,GI50,TK-10 renal,1040 nM and 485 nM
same,TGI,TK-10 renal,2270 nM and 1620 nM
same,GI50,OVCAR-4 ovarian,271 nM and 228 nM
same,TGI,OVCAR-4 ovarian,1030 nM and 863 nM
same,GI50,HL-60(TB) leukemia,1820 nM and 2400 nM
same,TGI,HL-60(TB) leukemia,3880 nM and 5120 nM
same,GI50,SK-MEL-28 melanoma,347 nM and 278 nM
same,TGI,SK-MEL-28 melanoma,1230 nM and 831 nM
same,GI50,EKVX NSCLC,335 nM and 264 nM
same,TGI,EKVX NSCLC,1380 nM and 1130 nM
same,GI50,UACC-257 melanoma,410 nM and 365 nM
same,TGI,UACC-257 melanoma,1430 nM and 1300 nM
same,GI50,COLO 205 colon,152 nM and 89.5 nM
same,TGI,COLO 205 colon,448 nM and 299 nM
same,GI50,KM12 colon,276 nM and 105 nM
same,TGI,KM12 colon,1130 nM and 542 nM
same,GI50,T-47D breast,822 nM and 541 nM
same,TGI,T-47D breast,2970 nM and 2610 nM
